System: not listed separately
Experiment: log P determination by HPLC on reverse-phase column (EEC Directive 79/831 Annex V.A8)
Format: physicochemical
Conditions: HPLC on reverse-phase column
In short: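 Reverse-phase C18 HPLC at 43 °C, following EEC Directive 79/831 Annex V.A8. Acidic LC-MS used pH 2.7 eluents (0.1% aqueous formic acid and acetonitrile with 0.1% formic acid) on a 10–95% acetonitrile linear gradient. Log P was interpolated linearly from retention times against unbranched C3–C16 alkan-2-ones of known log P.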

Structure (SMILES) | logP
CNC(=O)c1cc(Cl)cc(C)c1NC(=O)c1cc(Cn2cc(Cl)c(C(F)(F)C(F)(F)F)n2)nn1-c1ncccc1Cl [I-1-30] | 3.77
Cc1cc(Cl)cc(C(=O)NC(C)C)c1NC(=O)c1cc(Cn2cc(Cl)c(C(F)(F)C(F)(F)F)n2)nn1-c1ncccc1Cl [I-1-31] | 4.21
Cc1cc(Cl)cc(C(=O)NCC#N)c1NC(=O)c1cc(Cn2cc(Cl)c(C(F)(F)C(F)(F)F)n2)nn1-c1ncccc1Cl [I-1-32] | 3.70
Cc1cc(Br)cc(C(=O)NCC#N)c1NC(=O)c1cc(Cn2cc(C(F)(F)C(F)(F)F)c(C(F)(F)C(F)(F)F)n2)nn1-c1ncccc1Cl [I-1-33] | 4.28
CNC(=O)c1cc(Cl)cc(C)c1NC(=O)c1cc(Cn2cc(Br)c(C(F)(F)C(F)(F)F)n2)nn1-c1ncccc1Cl [I-1-34] | 3.80
CNC(=O)c1cc(Cl)cc(C)c1NC(=O)c1cc(Cn2nc(C(F)(F)F)nc2C(F)(F)F)nn1-c1ncccc1Cl [I-1-35] | 3.43
CNC(=O)c1cc(Br)cc(C)c1NC(=O)c1cc(Cn2nc(C(F)(F)F)nc2C(F)(F)F)nn1-c1ncccc1Cl [I-1-36] | 3.52
Cc1cc(Br)cc(C(=O)NC(C)C)c1NC(=O)c1cc(Cn2nc(C(F)(F)C(F)(F)F)nc2C(F)(F)C(F)(F)F)nn1-c1ncccc1Cl [I-1-37] | 4.73
CNC(=O)c1cc(Br)cc(C)c1NC(=O)c1cc(Cn2nc(C(F)(F)C(F)(F)F)nc2C(F)(F)C(F)(F)F)nn1-c1ncccc1Cl [I-1-39] | 4.31
Cc1cc(Cl)cc(C(=O)NC(C)C)c1NC(=O)c1cc(Cn2nc(C(F)(F)F)nc2C(F)(F)F)nn1-c1c(Cl)cccc1Cl [I-1-40] | 4.58

System: caterpillars of the armyworm (Spodoptera frugiperda)
Experiment: Spodoptera frugiperda test (cabbage leaves, immersion)
Format: in vivo
Conditions: 100 g/ha; cabbage leaves immersed
Procedure: An appropriate preparation of active compound is prepared by mixing 1 part by weight of active compound with the stated amounts of solvent and emulsifier and diluting the concentrate with emulsifier-containing water to the desired concentration.
Cabbage leaves (Brassica oleracea) are treated by immersion into a preparation of active compound at the desired concentration and, are populated with caterpillars of the armyworm (Spodoptera frugiperda) while the leaves are still wet.
After the desired time the effect in % is determined. 100% means that all of the caterpillars have been killed; 0% means that no caterpillars have been killed.
Cabbage leaves (Brassica oleracea) are treated by immersion into a preparation of active compound at the desired concentration and are populated with caterpillars of the armyworm (Spodoptera frugiperda) while the leaves are still wet.

Structure (SMILES) | Kill level after 7 d in % [%]
CNC(=O)c1cc(Cl)cc(C)c1NC(=O)c1cc(Cn2cc(Cl)c(C(F)(F)C(F)(F)F)n2)nn1-c1ncccc1Cl [I-1-30] | 100
Cc1cc(Cl)cc(C(=O)NC(C)C)c1NC(=O)c1cc(Cn2cc(Cl)c(C(F)(F)C(F)(F)F)n2)nn1-c1ncccc1Cl [I-1-31] | 100
Cc1cc(Cl)cc(C(=O)NCC#N)c1NC(=O)c1cc(Cn2cc(Cl)c(C(F)(F)C(F)(F)F)n2)nn1-c1ncccc1Cl [I-1-32] | 100
Cc1cc(Br)cc(C(=O)NCC#N)c1NC(=O)c1cc(Cn2cc(C(F)(F)C(F)(F)F)c(C(F)(F)C(F)(F)F)n2)nn1-c1ncccc1Cl [I-1-33] | 100
CNC(=O)c1cc(Cl)cc(C)c1NC(=O)c1cc(Cn2cc(Br)c(C(F)(F)C(F)(F)F)n2)nn1-c1ncccc1Cl [I-1-34] | 100
CNC(=O)c1cc(Cl)cc(C)c1NC(=O)c1cc(Cn2nc(C(F)(F)F)nc2C(F)(F)F)nn1-c1ncccc1Cl [I-1-35] | 100
CNC(=O)c1cc(Br)cc(C)c1NC(=O)c1cc(Cn2nc(C(F)(F)F)nc2C(F)(F)F)nn1-c1ncccc1Cl [I-1-36] | 100
Cc1cc(Br)cc(C(=O)NC(C)C)c1NC(=O)c1cc(Cn2nc(C(F)(F)C(F)(F)F)nc2C(F)(F)C(F)(F)F)nn1-c1ncccc1Cl [I-1-37] | 100
CNC(=O)c1cc(Br)cc(C)c1NC(=O)c1cc(Cn2nc(C(F)(F)C(F)(F)F)nc2C(F)(F)C(F)(F)F)nn1-c1ncccc1Cl [I-1-39] | 100
Cc1cc(Cl)cc(C(=O)NC(C)C)c1NC(=O)c1cc(Cn2nc(C(F)(F)F)nc2C(F)(F)F)nn1-c1c(Cl)cccc1Cl [I-1-40] | 100
